Article PMC9609996, “SAR Study and Molecular Mechanism Investigation of Novel Naphthoquinone-furan-2-cyanoacryloyl Hybrids with Antitumor Activity” (Pharmaceutics, 2022)

Tests used:
Type in all cases: cell-based, human
Hep3B = experiment: CCK-8 anti-proliferation assay, Hep3B; details: 48 h, mean ± SD
Procedure: (§1) Human cervical cancer HeLa, human prostate cancer PC3, human colonic carcinoma HCT116, human lung carcinoma A549, human breast cancer MDA-MB-231, mouse melanoma B16, human ovarian cancer SKOV3, human hepatoma Hep3B, and human liver L02 cells were purchased from the Cell Bank of Shanghai Institute of Biochemistry and Cell Biology, Chinese Academy of Sciences (Shanghai, China). The HeLa, A549, B16, PC3, MDA-MB-231, HCT116, and L02 cells were cultured in Dulbecco’s modified Eagle medium (DMEM, Gibco Inc.; Gaithersburg, MD, USA). All cultures were supplied with 10% fetal bovine serum (FBS; YHSM, Beijing, China), 100 IU/mL of penicillin, and 100 μg/mL of streptomycin, and cells were incubated at 37 °C in an atmosphere of 5% CO2.
(§2) A CCK-8 kit (MCE, USA) was used to perform a CCK-8 assay. Cells were plated and grown in the 96-well plates for the indicated period (48 h) in the incubator, followed by an incubation with the CCK-8 solutions for 1–4 h. Subsequently, the absorbance (450 nm) was measured by a microplate reader. The median inhibitory concentration (IC50) was determined from the dose–response curve. Experiments were performed in a triplicate.

STAT3 in HeLa cells = experiment: Western blot, STAT3 and p-STAT3 (Y705); details: 6–12 μM, 24 h
Procedure: As many quinone compounds have anti-proliferation activity by inhibiting the STAT3 [34], we evaluated whether compound 5c could inhibit its phosphorylation. HeLa cells were incubated with different concentrations (6–12 μM) of 5c for 24 h. Then, the levels of total STAT3 and phosphorylated STAT3 at the tyrosine 705 residue were detected by a Western blot analysis.
Protein levels were determined by the standard Western blot assay. HeLa cells were incubated with different concentrations of compound 5c or 0.1% DMSO for 24 h. […] The bound immuno-complexes were detected using a ChemiDOC XRS+ system (BioRad Laboratories, Hercules, CA, USA).

HeLa cells [1] = experiment: Cell cycle analysis by flow cytometry; details: 12 μM; 24 h; 10.19% at 0 μM
Procedure: To investigate the effect of compound 5c on the cell cycle distribution, a flow cytometric analysis was performed. HeLa cells were treated with 5c at concentrations of 0 μM, 6 μM, 9 μM, and 12 μM for 24 h and then subjected to a flow cytometric analysis after DNA staining. […] Accordingly, treatment of HeLa cells with 5c induced a G2/M phase arrest of cell cycle progression.
For the cell cycle analysis, HeLa cells seeded in a 6-well plate (3 × 10^5 per well) were incubated with different concentrations of compound 5c or 0.1% DMSO for 24 h. Then, the cells were digested with 0.25% trypsin (without EDTA) and were washed twice with PBS, fixed in 70% ethanol overnight, and stained with PI ([…], Sigma) plus 0.2 mg/mL of DNase-free RNase A (Qiagen) for 20 minutes at room temperature. For the annexin V apoptosis assay, HeLa cells seeded in a 6-well plate (3 × 10^5 per well) were incubated with different concentrations of compound 5c or 0.1% DMSO for 24 h. Then, the cells were digested with 0.25% trypsin (without EDTA) and were washed twice with PBS. The cells were then collected and resuspended in 500 μL of the binding buffer. We added 5 μL of annexin V-FITC and PI each into the mixture in the dark. After 20 min of incubation, a flow cytometer (FACSCalibur; Becton Dickinson, Franklin Lakes, NJ, USA) was used to detect apoptosis (FITC Ex/Em = 488/525 nm and PI Ex/Em = 535/615 nm). […]

HeLa cells [2] = experiment: Wound healing assay; details: 6 μM, 48 h
Procedure: A total of 1 × 10^6 HeLa cells/well in the logarithmic growth phase were seeded into 6-well plates. When the cell density reached 80–90%, a scratch was made in the monolayer in the middle of the well with a 200 μL pipette tip. The tip was kept perpendicular to the bottom of the well to obtain a straight gap. The detached cells were washed away and removed. Wound healing within the same scraped line was then observed and photographed at the indicated time points (0 h, 24 h, and 48 h). Images were taken at 0 h, 24 h and 48 h after scraping using a phase-contrast microscope. The wound closure was calculated as a percentage (%) of the difference in the width of the wound between 0 h, 24 h and 48 h relative to 0 h, as described below: Wound closure (%) = (Width of wound at 0 h − Width of wound at 24 h)/Width of wound at 0 h × 100%

MDA-MB-231 = experiment: CCK-8 anti-proliferation assay, MDA-MB-231; details: mean ± SD
Procedure: as §1, §2

HCT116 = experiment: CCK-8 anti-proliferation assay, HCT116; details: Homo sapiens, mean ± SD
Procedure: as §1, §2

**Q.** Which results are given for N#C/C(=C\c1ccc(C2=CC(=O)c3ccccc3C2=O)o1)C(=O)NCCN1CCOCC1 [Compound 5c, (E)-2-cyano-3-(5-(1,4-dioxo-1,4-dihydronaphthalen-2-yl)furan-2-yl)-N-(2-morpholinoethyl)acrylamide]?
**A.** IC50 (Hep3B): 34.77 ± 0.03 µM; IC50 (Hep3B; Homo sapiens): > 20.5 µM; Y705 STAT3 phosphorylation (STAT3 in HeLa cells): dose-dependently abrogated; level of total STAT3 (STAT3 in HeLa cells): slightly down-regulated; HeLa cell population in the G2/M phase (HeLa cells [1]): 23.88%; cell migration (HeLa cells [2]): significantly inhibited; IC50 (MDA-MB-231; 48 h): 40.74 ± 0.12 µM; IC50 (MDA-MB-231; Homo sapiens, MDA-MB-231, 48 h): > 20.5 µM; inhibition at 20 µM (HCT116; HCT-116, 20 μM, read-out: Inhibition Rate (%) at 20 μM HCT116): 67.67 ± 0.01%; IC50 (HCT116; HCT-116, 48 h): 13.38 ± 0.04 µM
